A short description of experiment [1]: Selectivity ratio of Ki for human HGPRT to Ki for Plasmodium falciparum HGPRT.
Experiment [2] is described as follows: (§1) Inhibition of Plasmodium vivax HGPRT by spectrophotometric analysis in presence of 52 uM PPi.
Experiment [3] can be described thus: (§2) Inhibition of Plasmodium vivax HGPRT by spectrophotometric analysis in absence of PPi.
Experiment [4] is described as follows: (§3) Inhibition of Plasmodium falciparum HGPRT by spectrophotometric analysis in absence of PPi.
Experiment [5] is described as follows: Selectivity ratio of Ki for human HGPRT to Ki for Plasmodium vivax HGPRT.
The target of experiment [6] is T1, Hypoxanthine-guanine phosphoribosyltransferase (Homo sapiens, UniProt P00492).
T1 sequence (P00492 whole entry): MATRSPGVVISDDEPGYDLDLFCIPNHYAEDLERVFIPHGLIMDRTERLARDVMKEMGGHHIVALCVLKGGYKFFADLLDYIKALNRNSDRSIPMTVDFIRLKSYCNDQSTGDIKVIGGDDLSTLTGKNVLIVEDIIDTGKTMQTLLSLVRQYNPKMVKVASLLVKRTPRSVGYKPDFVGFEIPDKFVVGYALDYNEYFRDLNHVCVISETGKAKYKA
The experiment in a line: (§4) Inhibition of human HGPRT by spectrophotometric analysis in absence of PPi.

The nature of experiment [7]: (§5) Inhibition of Plasmodium falciparum HGPRT by spectrophotometric analysis in presence of 52 uM PPi.
The subject of experiment [8] is Plasmodium vivax. The experiment is described as §1.
The test system of experiment [9] is Plasmodium vivax. The description is as §2.
Experiment [10] has as its target T2, Hypoxanthine-guanine phosphoribosyltransferase (Homo sapiens) (UniProt P00492).
T2 sequence (whole entry): T1 sequence (P00492 whole entry)
The experiment can be described thus: Inhibition of human HGPRT by spectrophotometric analysis in presence of 52 uM PPi.

The test system of experiment [11] is Plasmodium falciparum. The description is as §3.
Experiment [12] deals with T2, Hypoxanthine-guanine phosphoribosyltransferase (Homo sapiens). The experiment is described as §4.
For experiment [13], the system named is Plasmodium falciparum. The description is as §5.
For experiment [14], the system named is Plasmodium vivax. The experiment can be described thus: Inhibition of Plasmodium vivax HGPRT at >= 30 uM by spectrophotometric analysis in presence of 52 uM PPi.
The target of experiment [15] is T2, Hypoxanthine-guanine phosphoribosyltransferase (Homo sapiens). The experiment in a line: Inhibition of human HGPRT at >= 30 uM by spectrophotometric analysis in presence of 52 uM PPi.
Experiment [16] has as its system Plasmodium falciparum. The experiment in a line: Inhibition of Plasmodium falciparum HGPRT at >= 30 uM by spectrophotometric analysis in presence of 52 uM PPi.
For experiment [17], the target named is T2, Hypoxanthine-guanine phosphoribosyltransferase (Homo sapiens). The experiment can be described thus: Inhibition of human HGPRT at >= 100 uM by spectrophotometric analysis in absence of PPi.
Experiment [18] concerns Plasmodium falciparum. The experiment can be described thus: Inhibition of Plasmodium falciparum HGPRT at >= 100 uM by spectrophotometric analysis in presence of 52 uM PPi.
In experiment [19] the test system is Plasmodium vivax. The experiment can be described thus: Inhibition of Plasmodium vivax HGPRT at >= 100 uM by spectrophotometric analysis in absence of PPi.
Experiment [20] has as its system Plasmodium vivax. The experiment in a line: Inhibition of Plasmodium vivax HGPRT at >= 100 uM by spectrophotometric analysis in presence of 52 uM PPi.
For experiment [21], the target named is T2, Hypoxanthine-guanine phosphoribosyltransferase (Homo sapiens). The experiment can be described thus: Inhibition of human HGPRT at >= 100 uM by spectrophotometric analysis in presence of 52 uM PPi.
The test system of experiment [22] is Plasmodium falciparum. The experiment can be described thus: Inhibition of Plasmodium falciparum HGPRT at >= 100 uM by spectrophotometric analysis in absence of PPi.
For experiment [23], the target named is T2, Hypoxanthine-guanine phosphoribosyltransferase (Homo sapiens). The experiment in a line: Inhibition of human HGPRT at >= 30 uM by spectrophotometric analysis in absence of PPi.

Molecules are shown by their SMILES. pKi: −log10 of the molar value. Calls of active or inactive are those of the source. The calls are words filed in the database; no cut-off is given here. A value given as a limit tells only on which side of the number the result lay.

Broadly, the pKi is the Ki on a negative log10 scale, so that one unit is a factor of ten. Turning to `Nc1nc2c(ncn2CC(O)COCP(=O)(O)O)c(=O)[nH]1` (stereo not given), the Ratio Ki was determined as 2.8 in experiment [1] and 0.4 in experiment [5]. The pKi was 5.55 in experiment [2]; 5.00 in experiment [3]; 5.85 in experiment [4]; 5.40 in experiment [6]; 6.30 in experiment [7].
`O=c1[nH]cnc2c1ncn2/C=C\COCP(=O)(O)O`: the inhibition entry (in the experiment on Plasmodium vivax [8]; in the experiment on Plasmodium vivax [9]; in experiment [10]; with Plasmodium falciparum [11]; in experiment [12]; with Plasmodium falciparum [13]) was “inactive” each time.
Turning to `Nc1nc2c(ncn2CC(COCP(=O)(O)O)OCC(=O)O)c(=O)[nH]1` (stereo not given), the inhibition entry (in the experiment with Plasmodium vivax [14]; in [15]; in the experiment on Plasmodium falciparum [16]) was “inactive” in each case. The figures for the Ratio Ki in experiment [1] and in [5] were 1 and 0.2, respectively. Further, the pKi in [3] is 4.57; in [4], 5.30; in experiment [6], 5.30.
As to `O=C(O)COC(COCP(=O)(O)O)Cn1cnc2c(=O)[nH]cnc21` (stereo not given), the inhibition entry (in [17]; in the experiment on Plasmodium falciparum [18]; with Plasmodium vivax [19]; with Plasmodium vivax [20]; in experiment [21]; with Plasmodium falciparum [22]) was “inactive” each time.
As to `O=c1[nH]cnc2c1ncn2CC(O)COCP(=O)(O)O` (stereo not given), the Ratio Ki in [1] was greater than 50; in experiment [5], greater than 25. For the same molecule, the pKi was 6.05 in experiment [2], 5.30 in [3], 5.70 in [4] and 6.52 in [7]. For the same molecule, the inhibition result in experiment [15] and in [23] was “inactive” throughout.

These data come from ChEMBL document CHEMBL1933062, “Synthesis of purine N9-[2-hydroxy-3-O-(phosphonomethoxy)propyl] derivatives and their side-chain modified analogs as potential antimalarial agents” (Bioorg Med Chem, 2012).
